Test results: ChEMBL document CHEMBL1153245, “A profile of the in vitro anti-tumor activity of imidazolium-based ionic liquids” (2010)

Key:
Type in all cases: functional
[1] = test system: MDA-MB-435; test: Anticancer activity against human MDA-MB-435 cells assessed cell growth at 10 uM after 48 hrs by sulforhodamine B assay relative to control
[2] = test system: KM12; test: Anticancer activity against human KM12 cells assessed cell growth at 10 uM after 48 hrs by sulforhodamine B assay relative to control
[3] = test system: SW-620; test: Anticancer activity against human SW620 cells assessed cell growth at 10 uM after 48 hrs by sulforhodamine B assay relative to control
[4] = test system: OVCAR-3; test: Anticancer activity against human OVCAR-3 cells assessed cell growth at 10 uM after 48 hrs by sulforhodamine B assay relative to control
[5] = test system: SNB-19; test: Anticancer activity against human SNB19 cells assessed cell growth at 10 uM after 48 hrs by sulforhodamine B assay relative to control
[6] = test system: MOLT-4; test: Anticancer activity against human MOLT4 cells assessed cell growth at 10 uM after 48 hrs by sulforhodamine B assay relative to control
[7] = test system: M14; test: Anticancer activity against human M14 cells assessed cell growth at 10 uM after 48 hrs by sulforhodamine B assay relative to control
[8] = test system: Malme-3M; test: Anticancer activity against human MALME-3M cells assessed cell growth at 10 uM after 48 hrs by sulforhodamine B assay relative to control
[9] = test system: A498; test: Anticancer activity against human A498 cells assessed cell growth at 10 uM after 48 hrs by sulforhodamine B assay relative to control
[10] = test system: T47D; test: Anticancer activity against human T47D cells assessed cell growth at 10 uM after 48 hrs by sulforhodamine B assay relative to control
[11] = test system: HCT-116; test: Anticancer activity against human HCT116 cells assessed cell growth at 10 uM after 48 hrs by sulforhodamine B assay relative to control
[12] = test system: SR; test: Anticancer activity against human SR cells assessed cell growth at 10 uM after 48 hrs by sulforhodamine B assay relative to control
[13] = test system: OVCAR-4; test: Anticancer activity against human OVCAR4 cells assessed cell growth at 10 uM after 48 hrs by sulforhodamine B assay relative to control
[14] = test system: MCF7; test: Anticancer activity against human MCF7 cells assessed cell growth at 10 uM after 48 hrs by sulforhodamine B assay relative to control
[15] = test system: RXF 393; test: Anticancer activity against human RXF393 cells assessed cell growth at 10 uM after 48 hrs by sulforhodamine B assay relative to control
[16] = test system: CCRF-CEM; test: Anticancer activity against human CCRF-CEM cells assessed cell growth at 10 uM after 48 hrs by sulforhodamine B assay relative to control
[17] = test system: MDA-MB-468; test: Anticancer activity against human MDA-MB-468 cells assessed cell growth at 10 uM after 48 hrs by sulforhodamine B assay relative to control
[18] = test system: HCC 2998; test: Anticancer activity against human HCC2998 cells assessed cell growth at 10 uM after 48 hrs by sulforhodamine B assay relative to control
[19] = test system: LOX IMVI; test: Anticancer activity against human LOXIMVI cells assessed cell growth at 10 uM after 48 hrs by sulforhodamine B assay relative to control
[20] = test system: SN12C; test: Anticancer activity against human SN12C cells assessed cell growth at 10 uM after 48 hrs by sulforhodamine B assay relative to control
[21] = test system: NCI-H522; test: Anticancer activity against human NCI-H522 cells assessed cell growth at 10 uM after 48 hrs by sulforhodamine B assay relative to control
[22] = test system: SNB-75; test: Anticancer activity against human SNB75 cells assessed cell growth at 10 uM after 48 hrs by sulforhodamine B assay relative to control
[23] = test system: IGROV-1; test: Anticancer activity against human IGROV1 cells assessed cell growth at 10 uM after 48 hrs by sulforhodamine B assay relative to control
[24] = test system: NCI/ADR-RES; test: Anticancer activity against human NCI/ADR-RES cells assessed cell growth at 10 uM after 48 hrs by sulforhodamine B assay relative to control
[25] = test system: DU-145; test: Anticancer activity against human DU145 cells assessed cell growth at 10 uM after 48 hrs by sulforhodamine B assay relative to control
[26] = test system: PC-3; test: Anticancer activity against human PC3 cells assessed cell growth at 10 uM after 48 hrs by sulforhodamine B assay relative to control
[27] = test system: BT-549; test: Anticancer activity against human BT549 cells assessed cell growth at 10 uM after 48 hrs by sulforhodamine B assay relative to control
[28] = test system: SK-MEL-28; test: Anticancer activity against human SK-MEL-28 cells assessed cell growth at 10 uM after 48 hrs by sulforhodamine B assay relative to control
[29] = test system: HL-60(TB); test: Anticancer activity against human HL-60(TB) cells assessed cell growth at 10 uM after 48 hrs by sulforhodamine B assay relative to control
[30] = test system: UACC-62; test: Anticancer activity against human UACC62 cells assessed cell growth at 10 uM after 48 hrs by sulforhodamine B assay relative to control
[31] = test system: NCI-H23; test: Anticancer activity against human NCI-H23 cells assessed cell growth at 10 uM after 48 hrs by sulforhodamine B assay relative to control
[32] = test system: NCI-H322M; test: Anticancer activity against human NCI-H322M cells assessed cell growth at 10 uM after 48 hrs by sulforhodamine B assay relative to control
[33] = test system: U-251; test: Anticancer activity against human U251 cells assessed cell growth at 10 uM after 48 hrs by sulforhodamine B assay relative to control
[34] = test system: SK-OV-3; test: Anticancer activity against human SKOV3 cells assessed cell growth at 10 uM after 48 hrs by sulforhodamine B assay relative to control
[35] = Anticancer activity against human RPMI8266 cells assessed cell growth at 10 uM after 48 hrs by sulforhodamine B assay relative to control
[36] = test system: COLO 205; test: Anticancer activity against human COLO205 cells assessed cell growth at 10 uM after 48 hrs by sulforhodamine B assay relative to control
[37] = test system: SF-295; test: Anticancer activity against human SF295 cells assessed cell growth at 10 uM after 48 hrs by sulforhodamine B assay relative to control
[38] = test system: OVCAR-8; test: Anticancer activity against human OVCAR8 cells assessed cell growth at 10 uM after 48 hrs by sulforhodamine B assay relative to control
[39] = test system: UO-31; test: Anticancer activity against human UO31 cells assessed cell growth at 10 uM after 48 hrs by sulforhodamine B assay relative to control
[40] = test system: SF-539; test: Anticancer activity against human SF539 cells assessed cell growth at 10 uM after 48 hrs by sulforhodamine B assay relative to control
[41] = test system: CAKI-1; test: Anticancer activity against human Caki1 cells assessed cell growth at 10 uM after 48 hrs by sulforhodamine B assay relative to control
[42] = test system: A549; test: Anticancer activity against human A549 cells assessed cell growth at 10 uM after 48 hrs by sulforhodamine B assay relative to control
[43] = test system: HT-29; test: Anticancer activity against human HT-29 cells assessed cell growth at 10 uM after 48 hrs by sulforhodamine B assay relative to control

CCCCCCCCCCCCCCCCCC[n+]1ccn(C)c1.F[P-](F)(F)(F)(F)F
Activity [1]: -71.22% | Activity [2]: -60.81% | Activity [3]: -48.51% | Activity [4]: -57.4% | Activity [5]: -67.18% | Activity [6]: 2.98% | Activity [7]: -28.52% | Activity [8]: -46.96% | Activity [9]: -51.56% | Activity [10]: 13.4% | Activity [11]: -27.74% | Activity [12]: 13.95% | Activity [13]: -10.51% | Activity [14]: 1.35% | Activity [15]: -52.84% | Activity [16]: 13.72% | Activity [17]: -23.16% | Activity [18]: -83.5% | Activity [19]: -13.99% | Activity [20]: -24.52% | Activity [21]: -53.86% | Activity [22]: -68.15% | Activity [23]: -12.15% | Activity [24]: 22.73% | Activity [25]: -12.17% | Activity [26]: -62.83% | Activity [27]: -23.5% | Activity [28]: -57.59% | Activity [29]: 2.58% | Activity [30]: -65.74% | Activity [31]: -49.37% | Activity [32]: 11.62% | Activity [33]: -22.42% | Activity [34]: -6.01% | Activity [35]: 19.57% | Activity [36]: -27.43% | Activity [37]: -28.21% | Activity [38]: -34.11% | Activity [39]: -29.46% | Activity [40]: -80.04% | Activity [41]: -80.74% | Activity [42]: -24.42% | Activity [43]: -50.31%

CCCCCCCCCCCC[n+]1ccn(C)c1.[Cl-]
Activity [1]: 7.98% | Activity [2]: 14.03% | Activity [3]: 44.11% | Activity [4]: 45.92% | Activity [5]: 45.54% | Activity [6]: 78.62% | Activity [7]: 8.94% | Activity [8]: 24.55% | Activity [9]: 12.45% | Activity [10]: 24.65% | Activity [11]: 17.62% | Activity [12]: 103.6% | Activity [13]: 22.69% | Activity [14]: 3.94% | Activity [15]: -20.81% | Activity [16]: 110.51% | Activity [17]: -42.1% | Activity [18]: 31.07% | Activity [19]: 23.94% | Activity [20]: 19.36% | Activity [21]: -19.92% | Activity [22]: -10.6% | Activity [24]: 82.17% | Activity [25]: 6.6% | Activity [26]: 75.39% | Activity [28]: 34.86% | Activity [29]: 51.9% | Activity [30]: 31.07% | Activity [31]: 28.79% | Activity [32]: 57.06% | Activity [33]: 21.74% | Activity [34]: 44.54% | Activity [35]: 116.34% | Activity [36]: 8.8% | Activity [37]: 9.99% | Activity [38]: 11.53% | Activity [39]: 65.71% | Activity [40]: 30.45% | Activity [41]: 28.77% | Activity [42]: 32.62% | Activity [43]: 12.35%

Cn1cc[n+](Cc2ccccc2)c1.F[P-](F)(F)(F)(F)F
Activity [1]: 117.55% | Activity [2]: 110.94% | Activity [3]: 118.52% | Activity [4]: 110.15% | Activity [5]: 100.88% | Activity [6]: 81.59% | Activity [7]: 114.25% | Activity [8]: 118.68% | Activity [9]: 112.56% | Activity [10]: 90.49% | Activity [11]: 107.98% | Activity [12]: 103.39% | Activity [13]: 107.15% | Activity [14]: 102.21% | Activity [15]: 102.92% | Activity [16]: 113.04% | Activity [17]: 101.43% | Activity [19]: 100.88% | Activity [20]: 107.17% | Activity [21]: 99.72% | Activity [22]: 83.18% | Activity [23]: 95.43% | Activity [24]: 90.03% | Activity [25]: 118.22% | Activity [26]: 98.08% | Activity [27]: 112.82% | Activity [28]: 125.12% | Activity [29]: 44.77% | Activity [30]: 101.92% | Activity [31]: 70.66% | Activity [32]: 116.31% | Activity [33]: 101.41% | Activity [34]: 109.97% | Activity [35]: 131.72% | Activity [36]: 123.33% | Activity [37]: 115.95% | Activity [38]: 108.71% | Activity [39]: 91.78% | Activity [40]: 106.41% | Activity [41]: 83.75% | Activity [42]: 105.33% | Activity [43]: 96.77%

CCCCCC[n+]1ccn(C)c1.O=S(=O)([N-]S(=O)(=O)C(F)(F)F)C(F)(F)F
Activity [1]: 93.37% | Activity [2]: 100.77% | Activity [3]: 99.75% | Activity [4]: 99.74% | Activity [5]: 95.37% | Activity [6]: 100.94% | Activity [7]: 100.39% | Activity [8]: 102.07% | Activity [9]: 84.14% | Activity [11]: 80.77% | Activity [12]: 126.57% | Activity [13]: 82.57% | Activity [14]: 106.75% | Activity [15]: 103.51% | Activity [16]: 121.99% | Activity [17]: 80.22% | Activity [18]: 90.7% | Activity [19]: 92.45% | Activity [20]: 90.25% | Activity [21]: 81.74% | Activity [22]: 94.84% | Activity [23]: 85.47% | Activity [24]: 99.76% | Activity [25]: 117.36% | Activity [26]: 105.34% | Activity [27]: 119.52% | Activity [28]: 135.26% | Activity [29]: 112.14% | Activity [30]: 92.58% | Activity [31]: 89.09% | Activity [32]: 113.78% | Activity [33]: 96.82% | Activity [34]: 95.29% | Activity [35]: 125.38% | Activity [36]: 100.66% | Activity [37]: 101.37% | Activity [38]: 84.83% | Activity [39]: 84.29% | Activity [40]: 75.4% | Activity [41]: 66.14% | Activity [42]: 78.86% | Activity [43]: 88.19%
